Row | Compound | melting point
1 | CCCCCCOc1cc(C)ccc1C(=O)c1cccc(C(=O)O)c1 | 118 °C
2 | CN1CCC(Oc2ccccc2[N+](=O)[O-])(c2ccccc2)CC1 | 80 to 82 °C
3 | O=C1CCN(C2c3ccccc3C=Cc3ccccc32)CC1C(c1ccccc1)c1ccccc1 (stereo not given) | 175 to 178 °C
4 | CCCc1nc2c(n1Cc1ccc(-c3ccccc3-c3nnn[nH]3)cc1)C(C(=O)OCC)N(C(C)=O)CC2 (stereo not given) | 184 to 185 °C
5 | Cc1oc(-c2ccco2)nc1COc1ccc(COc2nn(Cc3ccccc3)cc2CO)cc1Cl | 119 to 120 °C
6 | C#CCn1c(Br)c(Br)c(Br)c1C#N | 95 to 105 °C
7 | Cc1cc(=S)c2c(O)cc(O)cc2o1 | 244 to 246 °C
8 | CCOc1cc(Cl)ccc1-c1nc2n(C3CCCC3)[nH]c(CC)c-2c(=O)n1 | 185 to 187 °C
9 | COc1ccc(C2=NN(C3CCN(S(=O)(=O)c4ccccc4OC(F)(F)F)CC3)C(=O)CC2)cc1OC | 118 to 119 °C
10 | COCCC(=O)N(Cc1ccc(OC(F)(F)F)cc1)c1cc(Cl)cc(-c2nnn[nH]2)c1 | 146 to 151 °C
11 | Fc1ccc(-c2ncn(C3CCCCO3)c2-c2ccc(F)cc2)cc1 (stereo not given) | 149 to 152 °C
12 | CCOC(=O)c1nc(OC)cc(OC)n1 | 54 to 55 °C
13 | Cc1ccncc1-c1nc(-c2ccc(Cl)cc2)c(Cl)s1 | 146 °C
14 | CCCCC(=O)Nc1ccc(Br)c(-n2nc(CC)n(Cc3ccc(-c4ccccc4S(N)(=O)=O)cc3F)c2=O)c1 | 223 to 225 °C
15 | CCCCCCSCCSc1nc2nc(C)cc(O)n2n1 | 126 °C
16 | NNc1nc(-c2ccccc2)co1 | 158 to 160 °C
17 | Nc1ncnc2c1c(-c1ccc(Oc3ccccc3O)cc1)cn2C1CCCC1 | 107 to 109 °C
18 | CCCCc1ccc(OCCN2CCN(c3cc(Cl)nnc3Cl)CC2)cc1 | 83 to 84 °C
19 | O=C(O)c1cn(CCc2ccc(C(F)(F)F)cc2)c2cc(C3CC3)nn2c1=O | 225 to 230 °C
20 | O=C(Nc1ccc2c(c1)CCSCC2)OCc1ccccc1 | 118 to 120 °C
21 | CC(=S)c1ccc(Cc2ccc(C(C)=S)cc2)cc1 | 54 to 55 °C
22 | COc1ccc(C2=NN(c3ccc(C4=NNC(=O)CC4C)cc3)C(=O)C3CC=CCC23)cc1OC (stereo not given) | 192 to 194 °C
23 | CN1CCN(c2nc3c(c(N4CCOCC4)n2)SCCC3)CC1 | 100 °C
24 | COc1ccc2[nH]c(C(=O)O)c(-c3ccccc3F)c2c1 | 206 to 208 °C
25 | O=C(CN1C(=O)CSC1=O)c1ccc(Cl)cc1 | 122 to 124 °C

Row | Compound | melting point
26 | CNC(=O)N(O)C(C)c1ccc(C#Cc2ccccc2)cc1 (stereo not given) | 138 to 141 °C
27 | FC(F)(F)c1ccccc1-c1nc(-c2ccccc2Cl)nn1CCCl | 66 to 68 °C
28 | COC(=O)CN(C)c1nc(-c2ccc(Br)cc2)cs1 | 86 °C
29 | CCc1nc(-c2cccc(C)c2)c(-c2ccnc(NC(=O)Cc3ccccc3)c2)s1 | 107 to 108 °C
30 | O=c1c(Br)c(OCc2ccccc2Cl)ccn1Cc1ccccc1 | 143 to 146 °C
31 | Nc1c(NCc2ccccc2)ccnc1Cl | 176 to 179 °C
32 | CC(=O)OC(C(=O)N(C)c1ccc(N(C)C(=O)C(OC(C)=O)c2ccccc2)cc1)c1ccccc1 (stereo not given) | 180 to 183 °C
33 | O=C(CBr)Nc1cccc(O)c1 | 167 to 170 °C
34 | CON=Cc1c(S(N)(=O)=O)ccn1C | 120 to 122 °C
35 | CC(=O)c1sc(-c2ccc(C(F)(F)F)cc2)nc1C | 89 to 90 °C
36 | CCON=C(C(=O)OCC)C1=CSc2ccccc2S1 | 78 to 81 °C
37 | Cc1ccc(C2=NNC(=O)CC2)c(OCC(O)CNC(C)(C)C)c1 (stereo not given) | 130 °C
38 | CCCCCCCCOc1ccc(-c2ncc(Br)cn2)c(F)c1F | 74.6 °C
39 | CCOC(=O)C(=CNc1ncnc2ccccc12)C(=O)OCC | 115 to 117 °C
40 | N#CNC1NN=C(c2ccc3ccccc3c2)O1 (stereo not given) | > 250 °C
41 | CN=C(N)N(C)Cc1ccc(C2=NNC(=O)CC2C)cc1 (stereo not given) | 190 to 192 °C
42 | Cn1ncc(/C=C/C(=O)Nc2ccc(Cc3ccccn3)cc2)c1-c1ccc(F)cc1 | 215 to 216 °C
43 | CC(=O)OCC1OC(N)C(OC(C)=O)C(OC(C)=O)C1OC(C)=O (stereo not given) | 145 to 147 °C
44 | CC1(C)OC(=C(C#N)C#N)C(C#N)=C1C=Cc1c(F)c(F)c(N2C3C4CCC(C4)C32)c(F)c1F (stereo not given) | 233 °C
45 | Cn1cc(C2=C(c3cn(-c4ccccc4)c4ccccc34)C(=O)NC2=O)c2ccccc21 | 135 to 137 °C
46 | CCOC(=O)c1ccc2c(C=C[N+](=O)[O-])c[nH]c2c1 | 241 °C
47 | CC(=O)N1CCN(c2c(F)c(C)c3c(=O)c(C(=O)O)cn(C4CC4)c3c2F)CC1 | 217 to 220 °C
48 | CC(Oc1ncn(-c2ccc(Br)cc2)n1)C(=O)NC1CC1 (stereo not given) | 170 to 172 °C
49 | CCOP(=O)(/C=C/c1cn(-c2ccccc2)nc1OCc1ccc(OCc2nc(-c3ccco3)oc2C)nc1)OCC | 134 to 135 °C
50 | CCCC[C@H](C)CC(=O)N[C@H](CCC(=O)N[C@@H](C)C(=O)N[C@H](C)C(=O)O)C(=O)O | 165 to 168 °C

Reference: a melting point compilation (Tetko et al.; mined from patent text by program, amines drawn as free bases though some values may be those of a salt)
